Molecular target: human OX2R (Homo sapiens (Human), UniProt O43614)
Experiment: IPOne (IP-1) assay in CHO cells expressing human OX2R
Type: cell-based
Conditions: for IC50: CHO cells expressing human OX2R, IP-One detection, 2 hours incubation, EC50 = inflection point of four parameter logistic fit, read-out: hOX2R_IP_IC50; for Emax: CHO, read-out: Emax (%)
Text: The utility of the compounds in accordance with the present invention as orexin receptor OX1R and/or OX2R agonists may be readily determined without undue experimentation by methodology well known in the art. Both the OX1R and/or OX2R G-coupled protein receptors (GPCRs) couple through the Gαq signaling pathway, which ultimately promotes calcium mobilization via inositol triphosphate (IP3) production. The half-life of IP-3 is relatively short, being rapidly metabolized to inositol monophosphate (IP-1), which can be readily detected using a commercially available assay kit (IP-One; Cisbio; cat #621PAPEC) coupled with a cell line expressing the target receptor(s) of interest. The utility of the compounds in accordance with the present invention as orexin receptor OX1R and/or OX2R agonists may be determined utilizing this assay.
In a typical experiment, the OX1 and OX2 receptor agonist activity is determined in accordance with the following general experimental method. Chinese hamster ovary (CHO) cells expressing human OX1R and/or the human OX2R were grown in Iscove's modified DMEM containing glutaMAX™, 1% G418, 100 U/mL penicillin, 100 μg/mL streptomycin and 10% heat-inactivated qualified fetal bovine serum (FBS). The OX2R cells were seeded at 10,000 cells/well/50 μL and the OX1R cells were seeded at 20,000 cells/well/50 μL into 384-well white tissue culture plates (Greiner; cat #781080). All cell/media reagents were from GIBCO-Invitrogen Corp. The seeded cell plate(s) were incubated at 37° C. with 5% CO2 and 85% humidity for 20-24 hours. On the day of the assay, assay-ready compound plates were prepared using an acoustic liquid handler (ECHO; Labcyte), which dispensed sufficient volume of test compound stock (10 mM in DMSO) or 100% DMSO to prepare 10 point, ½-log dilutions in a final volume of 202.5 nL/well in all test wells of a 384-well diamond plate (Labcyte). Following completion of assay-ready plates, importantly, the next three steps were performed with minimal delay: 1) 20 μl of 1× stimulation buffer was added to the compound plate using a Multidrop Combi (small cassette, Thermo Fisher Scientific cat #24073290); 2) culture medium was removed from the cell plate using the Bluewasher plate washer (gentle spin; BlueCatBio); 3) 14 μl of compound/stimulation buffer mixture was added to the cell plate using a Bravo liquid handler (Agilent) prior to incubating cell plates at 37° C. with 5% CO2 and 85% humidity for 1 or 2 hours (OX1R and OX2R, respectively). During this incubation, IP-one detection reagents were prepared (38:1:1 lysis buffer:D2:AB-cryptate reagents). Six μL of mixed detection reagents were added to the cell plate using a Multidrop Combi (small cassette, Thermo Fisher Scientific cat #24073290) and incubated 60 minutes at room temperature in the dark. Fluorescence signal was detected using an Envision plate reader (Perkin Elmer) [LANCE/DELFIA Dual Enh (Em: APC 665; Ex: Cy5 620)].
For each compound, data were fit to a four parameter logistic fit (ActivityBase software) and the EC50 was reported as the inflection point of the resulting curve. Percent effect for each test compound was determined as the percentage of sample raw value/mean max effect, where the mean max effect was derived from the mean raw value of 32 control wells per assay plate (using Orexin A (cat #003-30) at 1 μM for human OX1R and a reference compound at 1 uM with 100% activity previously established by comparison to Orexin A for human OX2R). The intrinsic orexin receptor agonist activity of a compound which may be used in the present invention may be determined by these assays.

[1] = percentage of mean max effect of a reference compound at 1 uM (100% activity by comparison to Orexin A), human OX2R

Chain of human OX2R (O43614 whole entry): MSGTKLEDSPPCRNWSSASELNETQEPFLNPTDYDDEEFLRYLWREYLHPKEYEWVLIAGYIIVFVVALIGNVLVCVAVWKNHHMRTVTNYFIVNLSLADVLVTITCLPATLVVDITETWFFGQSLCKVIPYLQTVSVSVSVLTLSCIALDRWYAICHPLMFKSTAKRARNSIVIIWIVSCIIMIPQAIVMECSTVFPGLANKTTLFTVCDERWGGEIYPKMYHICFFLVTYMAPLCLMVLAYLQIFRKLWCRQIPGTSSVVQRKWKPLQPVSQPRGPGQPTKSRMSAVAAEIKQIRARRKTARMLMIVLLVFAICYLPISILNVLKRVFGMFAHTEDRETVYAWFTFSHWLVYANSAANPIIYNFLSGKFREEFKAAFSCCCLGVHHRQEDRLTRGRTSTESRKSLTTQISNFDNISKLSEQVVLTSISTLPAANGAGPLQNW

| IC50 [nM] | Emax [1] [%] | Emax (%) [1] [%] | Compound |
| --- | --- | --- | --- |
| 0.78 | 100 |  | COC(=O)N1[C@H](C(F)F)C[C@H](NS(=O)(=O)C(F)F)[C@@H]1CO[C@H]1CC[C@@]2(c3ncc(F)cn3)C[C@H]2C1 (single isomer, unassigned) [Example 112] |
| 50.7 | 101 |  | COC(=O)N1[C@H](C)C[C@H](NS(C)(=O)=O)[C@@H]1COC1CC[C@@]2(c3nccs3)C[C@H]2C1 (single isomer, unassigned) [Example 146] |
|  | 91.7 |  | COC(=O)N1[C@H](C)C[C@H](NS(C)(=O)=O)[C@@H]1COC1CCC2(c3ncc(Cl)c(C(F)(F)F)n3)CC2C1 (stereo partly drawn) [Example 72, methyl (2R,3S,5R)-2-(((6-(5-chloro-4-(trifluoromethyl)pyrimidin-2-yl)bicyclo[4.1.0]heptan-3-yl)oxy)methyl)-5-methyl-3-(methylsulfonamido)pyrrolidine-1-carboxylate] |
|  |  | 100.9 | COC(=O)N1[C@H](C)C[C@H](NS(C)(=O)=O)[C@@H]1CO[C@H]1CC[C@@]2(c3ncccn3)C[C@H]2C1 (single isomer, unassigned) [Example 19] |
|  | 104 |  | CCS(=O)(=O)N[C@H]1CCCN(C(=O)OC(C)C)[C@H]1COC1CC[C@@]2(c3ncc(F)cn3)CC2C1 (stereo partly drawn) [Example 126, isopropyl (2R,3S)-3-(ethylsulfonamido)-2-(((6-(5-fluoropyrimidin-2-yl)bicyclo[4.1.0]heptan-3-yl)oxy)methyl)piperidine-1-carboxylate] |
|  | 100 |  | COC(=O)N1[C@@H]2CCC[C@@H]2[C@H](NS(=O)(=O)C2CC2)[C@@H]1COC1CCC2(c3ncc(F)cn3)CC2C1 (stereo partly drawn) [Example 128, methyl (2R,3S,3aS,6aR)-3-(cyclopropanesulfonamido)-2-(((6-(5-fluoropyrimidin-2-yl)bicyclo[4.1.0]heptan-3-yl)oxy)methyl)hexahydrocyclopenta[b]pyrrole-1(2H)-carboxylate] |
|  | 105 |  | CC(C)OC(=O)N1[C@H](C)C[C@H](NS(=O)(=O)CF)[C@@H]1COC1CCC2(c3ncc(Br)cn3)CC2C1 (stereo partly drawn) [Example 108, isopropyl (2R,3S,5R)-2-(((6-(5-bromopyrimidin-2-yl)bicyclo[4.1.0]heptan-3-yl)oxy)methyl)-3-((fluoromethyl)sulfonamido)-5-methylpyrrolidine-1-carboxylate] |
|  | 103 |  | COC[C@@H]1C[C@H](NS(C)(=O)=O)[C@H](CO[C@H]2CC[C@@]3(c4ncc(F)cn4)C[C@H]3C2)N1C(=O)OC [Example 132, methyl (2R,3S,5S)-2-((((1S,3S,6R)-6-(5-fluoropyrimidin-2-yl)bicyclo[4.1.0]heptan-3-yl)oxy)methyl)-5-(methoxymethyl)-3-(methylsulfonamido)pyrrolidine-1-carboxylate] |
|  | 96.8 |  | COC(=O)N1[C@H](C)C[C@H](NS(C)(=O)=O)[C@@H]1COC1CCC2(c3nccs3)CC2C1 (stereo partly drawn) [Example 149, methyl (2R,3S,5R)-5-methyl-3-(methylsulfonamido)-2-(((6-(thiazol-2-yl)bicyclo[4.1.0]heptan-3-yl)oxy)methyl)pyrrolidine-1-carboxylate] |
| 195 | 96.9 |  | COC(=O)N1[C@H](C)C[C@H](NS(C)(=O)=O)[C@@H]1COC1CCC2(c3ncc(C#N)cn3)CC2C1 (mixture of isomers) [Example 188, methyl (2R,3S,5R)-2-(((6-(5-cyanopyrimidin-2-yl)bicyclo[4.1.0]heptan-3-yl)oxy)methyl)-5-methyl-3-(methylsulfonamido)pyrrolidine-1-carboxylate] |
|  | 95.4 |  | CC(C)OC(=O)N1[C@H](C)C[C@H](NS(=O)(=O)N(C)C)[C@@H]1COC1CCC2(c3ncccn3)CC2C1 (stereo partly drawn) [Example 174, isopropyl (2R,3S,5R)-3-((N,N-dimethylsulfamoyl)amino)-5-methyl-2-(((6-(pyrimidin-2-yl)bicyclo[4.1.0]heptan-3-yl)oxy)methyl)pyrrolidine-1-carboxylate] |
|  | 57.9 |  | COC(=O)N1[C@H](C)C[C@H](NS(C)(=O)=O)[C@@H]1COC1CCC2(c3nc4c(F)ccc(F)c4s3)CC2C1 (stereo partly drawn) [Example 71, methyl (2R,3S,5R)-2-(((6-(4,7-difluorobenzo[d]thiazol-2-yl)bicyclo[4.1.0]heptan-3-yl)oxy)methyl)-5-methyl-3-(methylsulfonamido)pyrrolidine-1-carboxylate] |
|  | 100 |  | COC(=O)N1[C@H](C)C[C@H](NS(=O)(=O)C(C)C)[C@@H]1CO[C@H]1CC[C@@]2(c3ncc(F)cn3)C[C@H]2C1 [Example 38, methyl (2R,3S,5R)-2-((((1S,3S,6R)-6-(5-fluoropyrimidin-2-yl)bicyclo[4.1.0]heptan-3-yl)oxy)methyl)-5-methyl-3-((1-methylethyl)sulfonamido)pyrrolidine-1-carboxylate] |
| 142 | 99.5 |  | COC(=O)N1[C@H](C)C[C@H](NS(=O)(=O)N(C)C)[C@@H]1COC1CCC2(c3ncccn3)CC2C1 (single isomer, unassigned) [Example 186] |
|  | 97.1 |  | COC(=O)N1[C@H](C)C[C@H](NS(=O)(=O)CF)[C@@H]1COC1CCC2(c3ncc(F)c(OC)n3)CC2C1 (stereo partly drawn) [Example 85, methyl (2R,3S,5R)-2-(((6-(5-fluoro-4-methoxypyrimidin-2-yl)bicyclo[4.1.0]heptan-3-yl)oxy)methyl)-3-((fluoromethyl)sulfonamido)-5-methylpyrrolidine-1-carboxylate] |
|  | 100 |  | COC(=O)N1[C@H](C)C[C@H](NS(=O)(=O)C(C)C)[C@@H]1CO[C@@H]1CC[C@]2(c3ncc(F)cn3)C[C@@H]2C1 [Example 46, methyl (2R,3S,5R)-2-((((1R,3R,6S)-6-(5-fluoropyrimidin-2-yl)bicyclo[4.1.0]heptan-3-yl)oxy)methyl)-5-methyl-3-((1-methylethyl)sulfonamido)pyrrolidine-1-carboxylate] |
| 2.5 | 103 |  | CC(C)OC(=O)N1[C@H](C)C[C@H](NS(=O)(=O)CF)[C@@H]1CO[C@@H]1CC[C@]2(c3ncc(F)cn3)C[C@@H]2C1 (single isomer, unassigned) [Example 99] |
|  | 103 |  | COC(=O)N1[C@H](C)C[C@H](NS(=O)(=O)C(F)(F)F)[C@@H]1CO[C@@H]1CC[C@]2(c3ncc(F)cn3)C[C@@H]2C1 [Example 44, methyl (2R,3S,5R)-2-((((1R,3R,6S)-6-(5-fluoropyrimidin-2-yl)bicyclo[4.1.0]heptan-3-yl)oxy)methyl)-5-methyl-3-((trifluoromethyl)sulfonamido)pyrrolidine-1-carboxylate] |
|  | 101 |  | COC(=O)N1[C@H](C)C[C@H](NS(=O)(=O)CF)[C@@H]1COC1CCC2(c3ncc(Cl)c(OC)n3)CC2C1 (stereo partly drawn) [Example 86, methyl (2R,3S,5R)-2-(((6-(5-chloro-4-methoxypyrimidin-2-yl)bicyclo[4.1.0]heptan-3-yl)oxy)methyl)-3-((fluoromethyl)sulfonamido)-5-methylpyrrolidine-1-carboxylate] |
| 11.4 | 101 |  | CC(C)OC(=O)N1[C@H](C)C[C@H](NS(C)(=O)=O)[C@@H]1COC1CCC2(c3ncc(F)cn3)CC2C1 (mixture of isomers) [Example 26, isopropyl (2R,3S,5R)-2-(((6-(5-fluoropyrimidin-2-yl)bicyclo[4.1.0]heptan-3-yl)oxy)methyl)-5-methyl-3-(methylsulfonamido)pyrrolidine-1-carboxylate] |
| 3.9 | 101 |  | COC(=O)N1[C@H](C)C[C@H](NS(=O)(=O)N(C)C)[C@@H]1CO[C@@H]1CC[C@]2(c3ncc(F)cn3)C[C@@H]2C1 (single isomer, unassigned) [Example 165] |

— patent publication US11680060B2, “Bicycloheptane pyrrolidine orexin receptor agonists” (Merck Sharp & Dohme LLC, priority 2020, dated 2023)
